Laboratory results published in US9725445B2, “Cycloalkyl nitrile pyrazolo pyridones as Janus kinase inhibitors” (Merck Sharp & Dohme Corp., priority 2013, dated 2017).

What follows are compounds tested against JAK1 (Homo sapiens (Human), UniProt P23458) (assay: Jak biochemical HTRF assay, JAK1). Settings: HTRF biochemical assay, recombinant GST-tagged catalytic domain; read-out: JAK1 IC50.
Sequence of JAK1 (P23458 875-1153): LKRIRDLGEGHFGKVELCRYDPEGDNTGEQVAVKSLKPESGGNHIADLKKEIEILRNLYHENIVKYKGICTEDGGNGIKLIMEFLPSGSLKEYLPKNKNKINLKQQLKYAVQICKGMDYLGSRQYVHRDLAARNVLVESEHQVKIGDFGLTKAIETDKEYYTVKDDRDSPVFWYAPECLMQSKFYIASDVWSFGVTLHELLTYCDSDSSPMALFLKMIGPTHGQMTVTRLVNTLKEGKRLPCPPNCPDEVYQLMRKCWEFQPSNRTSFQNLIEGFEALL

Q: CN(C(C)(C)C)S(=O)(=O)c1ccc(Nc2nn([C@H]3CCCCC[C@@H]3C#N)c3cc[nH]c(=O)c23)cc1 (single isomer, unassigned) [Example 15-48, N-tert-butyl-4-({1-[(1S,2S or 1R,2R)-2-cyanocycloheptyl]-4-oxo-4,5-dihydro-1H-pyrazolo[4,3-c]pyridin-3-yl}amino)-N-methylbenzenesulfonamide] was tested. Which IC50 did it give?
A: The IC50 was 19 nM.

Q: For N#C[C@H]1CCCC[C@@H]1n1nc(Nc2ccc(S(=O)(=O)NC3CCCCC3)cc2)c2c(=O)[nH]ccc21 [Example 3-22, 4-({1-[(1S,2S)-2-cyanocyclohexyl]-4-oxo-4,5-dihydro-1H-pyrazolo[4,3-c]pyridin-3-yl}amino)-N-cyclohexylbenzenesulfonamide], which IC50 is on record?
A: Its IC50 is 0.4 nM.

These compounds were tested against JAK2 (Homo sapiens (Human), UniProt O60674) (assay: Jak biochemical HTRF assay, JAK2). Settings: HTRF biochemical assay, recombinant GST-tagged catalytic domain; read-out: JAK2 IC50.
Experimental: Jak Biochemical HTRF Assay Protocol
The ability of compounds to inhibit the activity of JAK1, JAK2, JAK3, and Tyk2 was measured using a recombinant purified GST-tagged catalytic domain for each enzyme (Invitrogen JAK1 #M4290, JAK2 #M4290, JAK3 #M4290, Tyk2 #M4290) in an HTRF format biochemical assay. […] The basic assay protocol is as follows: First, 250 nL of diluted compounds in DMSO were dispensed into the wells of a dry 384-well Black plate (Greiner #781076) using a Labcyte Echo 555 acoustic dispenser. Subsequent reagent additions employed an Agilent Bravo. […] After equilibration, 2 μL of 10×ATP in 1× assay buffer was added to initiate the kinase reaction and the plates were shaken and then incubated at room temperature for 120 minutes. […] Plates were shaken and centrifuged and then incubated 60 minutes at room temperature and then read on a Perkin Elmer Envision (λex=337 nm, λem=665 and 615 nm, TRF delay time=20 μs). HTRF signal=10,000*665 nm reading/615 nm reading. After normalization to untreated controls, the percent inhibition of the HTRF signal at each compound concentration was calculated. The plot of percent inhibition versus the log of compound concentration was fit with a 4-parameter dose response equation to calculate IC50 values.
Final Reaction Conditions were:
Examples of the instant invention were evaluated in JAK1 and JAK2 in vitro binding assays.

Sequence of JAK2 (O60674 849-1124): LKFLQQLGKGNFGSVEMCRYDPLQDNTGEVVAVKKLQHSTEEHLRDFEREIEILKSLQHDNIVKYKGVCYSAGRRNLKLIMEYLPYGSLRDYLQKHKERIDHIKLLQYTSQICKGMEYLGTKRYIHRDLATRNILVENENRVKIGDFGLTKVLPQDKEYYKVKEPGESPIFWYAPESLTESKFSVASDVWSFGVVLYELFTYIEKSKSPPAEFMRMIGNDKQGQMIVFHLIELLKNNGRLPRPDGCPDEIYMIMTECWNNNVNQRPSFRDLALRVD

Q: Which IC50 does the source give for CN(C(C)(C)C)S(=O)(=O)c1ccc(Nc2nn([C@H]3CCCCC[C@@H]3C#N)c3cc[nH]c(=O)c23)cc1 (single isomer, unassigned) [Example 15-48, N-tert-butyl-4-({1-[(1S,2S or 1R,2R)-2-cyanocycloheptyl]-4-oxo-4,5-dihydro-1H-pyrazolo[4,3-c]pyridin-3-yl}amino)-N-methylbenzenesulfonamide] here?
A: The IC50 was 18 nM.

Q: With N#C[C@H]1CCCC[C@@H]1n1nc(Nc2ccc(S(=O)(=O)NC3CCCCC3)cc2)c2c(=O)[nH]ccc21 [Example 3-22, 4-({1-[(1S,2S)-2-cyanocyclohexyl]-4-oxo-4,5-dihydro-1H-pyrazolo[4,3-c]pyridin-3-yl}amino)-N-cyclohexylbenzenesulfonamide] as the compound, how does the IC50 read?
A: Its IC50 is 1.2 nM.

Q: For N#C[C@@H]1CCCCC[C@H]1n1nc(Nc2ccc3c(c2)CN(C2CCCC2)C3=O)c2c(=O)[nH]ccc21 (single isomer, unassigned) [Example 15-52, (1R,2R or 1S,2S)-2-{3-[(2-cyclopentyl-1-oxo-2,3-dihydro-1H-isoindol-5-yl)amino]-4-oxo-4,5-dihydro-1H-pyrazolo[4,3-c]pyridin-1-yl}cycloheptanecarbonitrile], which IC50 is on record?
A: Its IC50 is 0.3 nM.

Q: With C[C@H](N[C@@H]1CC[C@H](n2nc(Nc3ccc(Cl)c(F)c3)c3c(=O)[nH]ccc32)[C@@H](C#N)C1)C1CC1 [Example 5-5, (1S,2S,5R)-2-(3-((4-chloro-3-fluorophenyl)amino)-4-oxo-4,5-dihydro-1H-pyrazolo[4,3-c]pyridin-1-yl)-5-(((S)-1-cyclopropylethyl)amino)cyclohexanecarbonitrile] as the compound, how does the IC50 read?
A: Its IC50 is 113 nM.

Q: With CC(C)(C)S(=O)(=O)c1ccc(Nc2nn([C@@H]3CC(F)(F)C[C@@H]3C#N)c3cc[nH]c(=O)c23)cc1 (single isomer, unassigned) [Example 22-2, (1S,2R or 1R,2S)-2-(3-((4-(tert-Butylsulfonyl)phenyl)amino)-4-oxo-4,5-dihydro-1H-pyrazolo[4,3-c]pyridin-1-yl)-4,4-difluorocyclopentanecarbonitrile] as the compound, how does the IC50 read?
A: The IC50 was 21 nM.

Q: For CC(C)(C)S(=O)(=O)c1ccc(Nc2nn([C@H]3CC(F)(F)C[C@H]3C#N)c3cc[nH]c(=O)c23)cc1 (single isomer, unassigned) [Example 22-1, (1R,2S or 1S,2R)-2-(3-((4-(tert-Butylsulfonyl)phenyl)amino)-4-oxo-4,5-dihydro-1H-pyrazolo[4,3-c]pyridin-1-yl)-4,4-difluorocyclopentanecarbonitrile], which IC50 is on record?
A: Its IC50 is 3.5 nM.

Q: CC(C)C(c1ccc(Nc2nn([C@H]3CCCC[C@@H]3C#N)c3cc[nH]c(=O)c23)cc1)n1ccnn1 (single isomer, unassigned) [Example 15-23, (1S,2S)-2-[3-({4-[(1R or 1S)-2-methyl-1-(1H-1,2,3-triazol-1-yl)propyl]phenyl}amino)-4-oxo-4,5-dihydro-1H-pyrazolo[4,3-c]pyridin-1-yl]cyclohexanecarbonitrile] was tested. Which IC50 did it give?
A: Its IC50 is 0.25 nM.

Q: How did the IC50 turn out when N#C[C@H]1CCCC[C@@H]1n1nc(Nc2ccc3c(c2)C(O)C2(CCCCC2)S3(=O)=O)c2c(=O)[nH]ccc21 (single isomer, unassigned) [Example 3-174, (1S,2S)-2-(3-{[(3S or 3R)-3-hydroxy-1,1-dioxido-3H-spiro[1-benzothiophene-2,1′-cyclohexan]-5-yl]amino}-4-oxo-4,5-dihydro-1H-pyrazolo[4,3-c]pyridin-1-yl)cyclohexanecarbonitrile] was run?
A: Its IC50 is 0.49 nM.

Q: Which IC50 does the source give for CC(C)S(=N)(=O)c1ccc(Nc2nn(C3CCC[C@@H]3C#N)c3cc[nH]c(=O)c23)cc1 (single isomer, unassigned) [Example 3-109, (1S,2S)-2-[3-({4-[(S or R)-S-(1-methylethyl)sulfonimidoyl]phenyl}amino)-4-oxo-4,5-dihydro-1H-pyrazolo[4,3-c]pyridin-1-yl]cyclopentanecarbonitrile] here?
A: Its IC50 is 0.47 nM.

Q: For N#C[C@H]1CCCC[C@@H]1n1nc(Nc2ccc3c(c2)CCNC3)c2c(=O)[nH]ccc21 [Example 3-156, (1S,2S)-2-[4-oxo-3-(1,2,3,4-tetrahydroisoquinolin-6-ylamino)-4,5-dihydro-1H-pyrazolo[4,3-c]pyridin-1-yl]cyclohexanecarbonitrile], which IC50 is on record?
A: Its IC50 is 2.6 nM.

Q: With N#C[C@H]1CCCC[C@@H]1n1nc(Nc2ccc(C(O)C(F)F)cc2)c2c(=O)[nH]ccc21 (stereo partly drawn) [Example 3-70, (1S,2S)-2-(3-{[4-(2,2-difluoro-1-hydroxyethyl)phenyl]amino}-4-oxo-4,5-dihydro-1H-pyrazolo[4,3-c]pyridin-1-yl)cyclohexanecarbonitrile] as the compound, how does the IC50 read?
A: Its IC50 is 0.61 nM.

Q: With N#C[C@H]1CCCC[C@@H]1n1nc(Nc2ccc(C(O)C(F)F)cc2)c2c(=O)[nH]ccc21 (mixture of isomers) [Example 10-1, Racemic-(1S,2S)-2-(3-((4-(2,2-difluoro-1-hydroxyethyl)phenyl)amino)-4-oxo-4,5-dihydro-1H-pyrazolo[4,3-c]pyridin-1-yl)cyclohexanecarbonitrile] as the compound, how does the IC50 read?
A: Its IC50 is 0.61 nM.

Q: Which IC50 does the source give for N#C[C@H]1C[C@@H](N2CCC2)CC[C@@H]1n1nc(Nc2ccc(Cl)cc2)c2c(=O)[nH]ccc21 [Example 5-18, (1S,2S,5S)-5-(azetidin-1-yl)-2-(3-((4-chlorophenyl)amino)-4-oxo-4,5-dihydro-1H-pyrazolo[4,3-c]pyridin-1-yl)cyclohexanecarbonitrile] here?
A: The IC50 was 13 nM.

Q: CC(C)NC(c1ccc(Nc2nn([C@H]3CCC[C@@H]3C#N)c3cc[nH]c(=O)c23)cc1)C(F)(F)F (single isomer, unassigned) [Example 3-115, (1S,2S)-2-{4-oxo-3-[(4-{(1R or 1S)-2,2,2-trifluoro-1-[(1-methylethyl)amino]ethyl}phenyl)amino]-4,5-dihydro-1H-pyrazolo[4,3-c]pyridin-1-yl}cyclopentanecarbonitrile] was tested. Which IC50 did it give?
A: Its IC50 is 0.33 nM.

Q: CC(C)S(=N)(=O)c1ccc(Nc2nn(C3CCC[C@@H]3C#N)c3cc[nH]c(=O)c23)cc1 (single isomer, unassigned) [Example 3-108, (1S,2S)-2-[3-({4-[(S or R)-S-(1-methylethyl)sulfonimidoyl]phenyl}amino)-4-oxo-4,5-dihydro-yl]cyclopentanecarbonitrile] was tested. Which IC50 did it give?
A: Its IC50 is 0.5 nM.

Q: N#C[C@H]1C[C@H](N2CCC2)CC[C@@H]1n1nc(Nc2ccc(Cl)cc2)c2c(=O)[nH]ccc21 [Example 5-17, (1S,2S,5R)-5-(azetidin-1-yl)-2-(3-((4-chlorophenyl)amino)-4-oxo-4,5-dihydro-1H-pyrazolo[4,3-c]pyridin-1-yl)cyclohexanecarbonitrile] was tested. Which IC50 did it give?
A: The IC50 was 33 nM.

Q: With CC(C)C(c1ccc(Nc2nn([C@H]3CCCC[C@@H]3C#N)c3cc[nH]c(=O)c23)cc1)n1ccnn1 (single isomer, unassigned) [Example 15-24, (1S,2S)-2-[3-({4-[(1S or 1R)-2-methyl-1-(1H-1,2,3-triazol-1-yl)propyl]phenyl}amino)-4-oxo-4,5-dihydro-1H-pyrazolo[4,3-c]pyridin-1-yl]cyclohexanecarbonitrile] as the compound, how does the IC50 read?
A: The IC50 was 0.27 nM.

Q: With CC(C)(C)S(=O)(=O)c1ccc(Nc2nn([C@@H]3CC(F)(F)C[C@H]3C#N)c3cc[nH]c(=O)c23)cc1 (single isomer, unassigned) [Example 22-3, (1R,2R or 1S,2S)-2-(3-{[4-(tert-butylsulfonyl)phenyl]amino}-4-oxo-4,5-dihydro-1H-pyrazolo[4,3-c]pyridin-1-yl)-4,4-difluorocyclopentanecarbonitrile] as the compound, how does the IC50 read?
A: The IC50 was 17 nM.

Q: For N#C[C@H]1CCCCC[C@@H]1n1nc(Nc2ccc3c(c2)CN(C2CCCC2)C3=O)c2c(=O)[nH]ccc21 (single isomer, unassigned) [Example 15-50, (1S,2S or 1R,2R)-2-{3-[(2-cyclopentyl-1-oxo-2,3-dihydro-1H-isoindol-5-yl)amino]-4-oxo-4,5-dihydro-1H-pyrazolo[4,3-c]pyridin-1-yl}cycloheptanecarbonitrile], which IC50 is on record?
A: The IC50 was 14 nM.

Q: How did the IC50 turn out when CC(C)NC(c1ccc(Nc2nn([C@H]3CCC[C@@H]3C#N)c3cc[nH]c(=O)c23)cc1)C(F)(F)F (single isomer, unassigned) [Example 3-116, (1S,2S)-2-{4-oxo-3-[(4-{(1S or 1R)-2,2,2-trifluoro-1-[(1-methylethyl)amino]ethyl}phenyl)amino]-4,5-dihydro-1H-pyrazolo[4,3-c]pyridin-1-yl}cyclopentanecarbonitrile] was run?
A: The IC50 was 0.2 nM.

Q: Which IC50 does the source give for CC(O)(c1ccc(Nc2nn([C@H]3CCC[C@@H]3C#N)c3cc[nH]c(=O)c23)cc1)C(F)(F)F (single isomer, unassigned) [Example 3-139, (1S,2S)-2-[4-oxo-3-({4-[(1R or 1S)-2,2,2-trifluoro-1-hydroxy-1-methylethyl]phenyl}amino)-4,5-dihydro-1H-pyrazolo[4,3-c]pyridin-1-yl]cyclopentanecarbonitrile] here?
A: The IC50 was 0.35 nM.

Q: With N#C[C@H]1CCCC[C@@H]1n1nc(Nc2ccc3c(c2)C(O)C2(CCCCC2)S3(=O)=O)c2c(=O)[nH]ccc21 (single isomer, unassigned) [Example 3-175, (1S,2S)-2-(3-{[(3R or 3S)-3-hydroxy-1,1-dioxido-3H-spiro[1-benzothiophene-2,1′-cyclohexan]-5-yl]amino}-4-oxo-4,5-dihydro-1H-pyrazolo[4,3-c]pyridin-1-yl)cyclohexanecarbonitrile] as the compound, how does the IC50 read?
A: The IC50 was 0.26 nM.
